“And” between values parts separate entries of the source, which are not always exact repeats. Equal values may be shown once. Square brackets hold non-standard residues; d marks the D form. Ends that are not written are not given here.
Tests used:
[1] = system: phenylbenzoquinone-induced writhing; assay: phenylbenzoquinone-induced writhing test; format: in vivo; conditions: subcutaneous, mice
Procedure: Exp. Biol. Med., 95, 729-731 (1957), by establishing three groups of ten mice (Carworth farms) per group (18-27 g. body weight). The animals receive the compound being tested (Examples 9 and 15) subsubcutaneously. Five or 20 minutes later each animal received 0.25 milliliters of the writhing agonist (i.e. 0.02% solution of PBQ). The animals receiving the writhing agonist five minutes after the test compound are observed for a period of ten minutes beginning five minutes after the injection. The animals receiving the writhing agonist 20 minutes after the test compound are observed for ten minutes beginning five minutes after the injection. A compound is an analgesic if it inhibits writhing induced by phenyl benzoquinone.

[2] = system: opiate receptor (3H-naloxone binding); assay: 3H-naloxone displacement (procedure of Chang et al.); set-up: 3H-naloxone displacement ED50: unit not given here
Excerpt: Enkephalin, a natural opiate receptor agonist in the brain, has been identified [see Hughes et al., Nature, 258,577 (1975)] as a mixture of two pentapeptides: H-Tyr-Gly-Gly-Phe-Met-OH (methionine-enkephalin) and H-Tyr-Gly-Gly-Phe-Leu-OH (leucine-enkephalin). […] It has been reported that methionine-enkephalin and leucine-enkephalin, when administered by injection in the brain ventricle in rats, induce a profound analgesia that is fully reversible by naloxone. [See Beluzzi et al., Nature, 260, 625 (1976)].

[3] = intravenous administration, relative to morphine; cited from earlier work

In the case of `C[C@@H](NC(=O)[C@@H](N)Cc1ccc(O)cc1)C(=O)NCC(=O)NC(Cc1ccccc1)CN1CCN(C)CC1` (stereo partly drawn) [Example 9, L-Tyrosyl-D-alanyl-N-[1-[(4-methyl-1-piperazinyl)methyl]-2-phenyl-ethyl]glycinamide], the “ED50 mg/kg. (confidence limits)” value ([1]; Time 15 minutes) is reported as 1.05 (0.62-1.79) mg/kg, the “ED50 mg/kg. (confidence limits)” value ([1]; Time 30 minutes) is reported as 4.60 (3.1-6.9) mg/kg and 6.20 (4.4-8.7) mg/kg and the “3H-naloxone displacement ED50” value [2] is reported as 1.36×10^-7. It also gave a relative displacement potency ([2]; 3H-naloxone displacement, morphine=1) of 1.3.
For Y[dM]GFP-NH2, the “times more potent than morphine” value [3] is listed as 5.5 times.

Source: patent US4320051A, “Analgesic tripeptide amides” (American Home Products Corporation, priority 1980, dated 1982)
